Measured values from US20070010671A1, “Novel quinazoline derivatives and methods of treatment related to the use thereof” (priority 2003, published 2007).

target: MCH receptor (Homo sapiens, UniProt Q99705); test: High throughput functional screening FLIPR/FDSS6000: inhibition of MCH-evoked intracellular Ca2+ changes; type: cell-based; settings: class by percent of control at 10^-7 M or by IC50; read-out: class
Text: Subsequently, a functional based assay was used to confirm the lead hits, referred to as FLIPR™ (the Fluorometric Imaging Plate Reader) and FDSS6000™ (Functional Drug Screening System). This assay utilized 3 non-endozenous, constitutively active version of the MCH receptor.
The FLIPR and FDSS assays are able to detect intracellular Ca^2+ concentration in cells, which can be utilized to assess receptor activation and determine whether a candidate compound is an, for example, antagonist, inverse agonist or agonist to a Gq-coupled receptor. The concentration of free Ca^2+ in the cytosol of any cell is extremely low, whereas its concentration in the extracellular fluid and endoplasmic reticulum (ER) is very high. Thus, there is a large gradient tending to drive Ca^2+ into the cytosol across both the plasma membrane and ER. The FLIPR™ and FDSS6000™ systems (Molecular Devices Corporation, HAMAMATSU Photonics K.K.) are designed to perform functional cell-based assays, such as the measurement of intracellular calcium for high-throughput screening, The measurement of fluorescent is associated with calcium release upon activation of the Gq-coupled receptors.
Fluorometric Imaging Plate Reader system was used to allow for rapid, kinetic measurements of intracellular fluorescence in 96 well microplates (or 384 well microplates). Simultaneous measurements of fluorescence in all wells can be made by FLIPR or FDSS6000™ every second with high sensitivity and precision. These systems are ideal for measuring cell-based functional assays such as monitoring the intracellular calcium fluxes that occur within seconds after activation of the Gq coupled receptor.
Briefly, the cells are seeded into 96 well at 5.5×10^4 cells/well with complete culture media (Dulbecco's Modified Eagle Medium with 10% fetal bovine serum, 2 mMi L-glutamine, 1 mM sodium pyruvate and 0.5 mg/ml G418, pH 7.4) for the assay next day. On the day of assay, the media is removed and the cells are incubated with 100 μl of loading buffer (4 μM Fluo4-AM in complete culture media containing 2.5 mM Probenicid, 0.5 mg/ml and 0.2% bovine serum albumin) in 5% CO2 incubator at 37° C. for 1 hr. The loading buffer is removed, and the cells are washed with wash buffer (Hank's Balanced Salt Solution containing 2.5 mM Probenicid, 20 mM HEPES, 0.5 mg/ml and 0.2% bovine serum albumm, pH 7.4)). One hundred fifty μl of wash buffer containing various concentrations of test compound is added to the cells, and the cells are incubated in 5% CO2 incubator at 37° C. for 3 min. Fifty μl of wash buffer containing various concentration of MCH are added to each well, and transient changes in [Ca^2+]i evokled bee MCH are monoitored using the FLIPR, or FDSS in 96 shell plates at Ex. 488 nm and Em. 530 nm for 290 second. When antagonist activity of compound is tested, 50 nM of MCH is used.
Use of FLIPR™ and FDSS6000™ can be accomplished by following manufacturer's instruction (Molecular Device Corporation and HAMAMATSU Photonics K.K.).

Row | IC50 [nM] | SMILES
1 | > 200 | CN(C)c1nc(N[C@H]2CC[C@@H](NC(=O)NC34CC5CC(CC(C5)C3)C4)CC2)nc2ccccc12 (relative stereo) [compound 5]
2 | < 50 | COC(=O)[C@H](CCSC)NC(=O)N[C@H]1CC[C@@H](Nc2nc(N(C)C)c3ccccc3n2)CC1 (relative stereo) [compound 41, methyl N-{[(cis-4-{[4-(dimethylamino)quinazolin-2-yl]amino}cyclohexyl)amino]carbonyl}methioninate]
3 | < 50 | COC(=O)[C@H](Cc1ccccc1)NC(=O)N[C@H]1CC[C@@H](Nc2nc(N(C)C)c3ccccc3n2)CC1 (relative stereo) [compound 62, methyl N-{[(cis-4-{[4-(dimethylamino)quinazolin-2-yl]amino}cyclohexyl)amino]carbonyl}phenylalaninate]
4 | < 50 | CC(NC(=O)N[C@H]1CC[C@@H](Nc2nc(N(C)C)c3ccccc3n2)CC1)c1ccccc1 (relative stereo) [compound 65, N-(cis-4-{[4-(dimethylamino)quinazolin-2-yl]amino}cyclohexyl)-N′-(1-phenylethyl)urea]
5 | < 50 | CC(NC(=O)N[C@H]1CC[C@@H](Nc2nc(N(C)C)c3ccccc3n2)CC1)c1ccc(Br)cc1 (relative stereo) [compound 151]
6 | > 200 | CN(C)c1nc(N[C@H]2CC[C@@H](NC(=S)NCC3CCCO3)CC2)nc2ccccc12 (relative stereo) [compound 196]

same assay, conditions: class by percent of control at 10^−7 M or by IC50; read-out: class

Row | SMILES | IC50 [nM]
7 | CN(C)c1nc(N[C@H]2CC[C@@H](CNC(=O)C(O)c3c(F)cccc3F)CC2)nc2ccccc12 (relative stereo) [Example 1092, 2-(2,6-difluorophenyl)-N-[(cis-4-{[4-(dimethylamino)quinazolin-2-yl]amino}cyclohexyl)methyl]-2-hydroxyacetamide] | > 200
8 | CN(C)c1nc(N[C@H]2CC[C@@H](CNC(=O)C(O)c3cccc(F)c3F)CC2)nc2ccccc12 (relative stereo) [Example 1093, 2-(2,3-difluorophenyl)-N-[(cis-4-{[4-(dimethylamino)quinazolin-2-yl]amino}cyclohexyl)methyl]-2-hydroxyacetamide] | > 200
9 | CN(C)c1nc(N[C@H]2CC[C@@H](CNC(=O)C(O)c3cc(F)ccc3F)CC2)nc2ccccc12 (relative stereo) [Example 1094, 2-(2,5-difluorophenyl)-N-[(cis-4-{[4-(dimethylamino)quinazolin-2-yl]amino}cyclohexyl)methyl]-2-hydroxyacetamide] | > 200
10 | CN(C)c1nc(N[C@H]2CC[C@@H](CNC(=O)C(O)c3ccc(F)c(F)c3)CC2)nc2ccccc12 (relative stereo) [Example 1095, 2-(3,4-difluorophenyl)-N-[(cis-4-{[4-(dimethylamino)quinazolin-2-yl]amino}cyclohexyl)methyl]-2-hydroxyacetamide] | > 200
11 | CN(C)c1nc(N[C@H]2CC[C@@H](CNC(=O)C(O)c3ccc(Br)cc3)CC2)nc2ccccc12 (relative stereo) [Example 1098, 2-(4-bromophenyl)-N-[(cis-4-{[4-(dimethylamino)quinazolin-2-yl]amino}cyclohexyl)methyl]-2-hydroxyacetamide] | > 200
12 | CN(C)c1nc(N[C@H]2CC[C@@H](CNC(=O)C(O)c3ccc(Cl)cc3)CC2)nc2ccccc12 (relative stereo) [Example 1099, 2-(4-chlorophenyl)-N-[(cis-4-{[4-(dimethylamino)quinazolin-2-yl]amino}cyclohexyl)methyl]-2-hydroxyacetamide] | > 200
13 | CN(C)c1nc(N[C@H]2CC[C@@H](NC(=O)C(O)c3ccc(Br)cc3)CC2)nc2ccccc12 (relative stereo) [Example 1107, 2-(4-bromophenyl)-N-(cis-4-{[4-(dimethylamino)quinazolin-2-yl]amino}cyclohexyl)-2-hydroxyacetamide] | 50 to 200
14 | CN(C)c1nc(N[C@H]2CC[C@@H](NC(=O)C(O)c3ccc(F)c(F)c3)CC2)nc2ccccc12 (relative stereo) [Example 1108, 2-(3,4-difluorophenyl)-N-(cis-4-{[4-(dimethylamino)quinazolin-2-yl]amino}cyclohexyl)-2-hydroxyacetamide] | 50 to 200
15 | CN(C)c1nc(N[C@H]2CC[C@@H](NC(=O)C(O)c3cccc(F)c3F)CC2)nc2ccccc12 (relative stereo) [Example 1109, 2-(2,3-difluorophenyl)-N-(cis-4-{[4-(dimethylamino)quinazolin-2-yl]amino}cyclohexyl)-2-hydroxyacetamide] | > 200
16 | CN(C)c1nc(N[C@H]2CC[C@@H](NC(=O)C(O)c3c(F)cccc3F)CC2)nc2ccccc12 (relative stereo) [Example 1110, 2-(2,6-difluorophenyl)-N-(cis-4-{[4-(dimethylamino)quinazolin-2-yl]amino}cyclohexyl)-2-hydroxyacetamide] | > 200
17 | CN(C)c1nc(N[C@H]2CC[C@@H](NC(=O)C(O)c3cc(F)ccc3F)CC2)nc2ccccc12 (relative stereo) [Example 1115, 2-(2,5-difluorophenyl)-N-(cis-4-{[4-(dimethylamino)quinazolin-2-yl]amino}cyclohexyl)-2-hydroxyacetamide] | 50 to 200

Results, then the molecule that gave them:

Row | IC50 [nM] | SMILES
18 | 50 to 200 | CC(NC(=O)[C@H]1CC[C@@H](Nc2nc(N(C)C)c3cc(F)c(F)cc3n2)CC1)c1ccc(Br)cc1 (relative stereo) [Example 1008, cis-N-[1-(4-bromophenyl)ethyl]-4-{[4-(dimethylamino)-6,7-difluoroquinazolin-2-yl]amino}cyclohexanecarboxamide]
19 | 50 to 200 | COc1ccc(C(O)C(=O)NC[C@H]2CC[C@@H](Nc3nc(N(C)C)c4ccccc4n3)CC2)cc1 (relative stereo) [Example 1096, N-[(cis-4-{[4-(dimethylamino)quinazolin-2-yl]amino}-cyclohexyl)-methyl]-2-hydroxy-2-(4-methoxyphenyl)acetamide]
20 | 50 to 200 | CN(C)c1nc(N[C@H]2CC[C@@H](CNC(=O)C(O)c3cccc(C(F)(F)F)c3)CC2)nc2ccccc12 (relative stereo) [Example 1104, N-[(cis-4-{[4-(dimethylamino)quinazolin-2-yl]amino}-cyclohexyl)-methyl]-2-hydroxy-2-[3-(trifluoromethyl)phenyl]-acetamide]
21 | < 50 | COc1ccc(C(O)C(=O)N[C@H]2CC[C@@H](Nc3nc(N(C)C)c4ccccc4n3)CC2)cc1 (relative stereo) [Example 1105, N-(cis-4-{[4-(dimethylamino)quinazolin-2-yl]amino}cyclohexyl)-2-hydroxy-2-(4-methoxyphenyl)acetamide]
22 | 50 to 200 | CN(C)c1nc(N[C@H]2CC[C@@H](NC(=O)C(O)c3ccc(Cl)cc3)CC2)nc2ccccc12 (relative stereo) [Example 1106, 2-(4-chlorophenyl)-N-(cis-4-{[4-(dimethylamino)quinazolin-2-yl]amino}cyclohexyl)-2-hydroxyacetamide]
23 | < 50 | CN(C)c1nc(N[C@H]2CC[C@@H](NC(=O)C(O)c3cccc(C(F)(F)F)c3)CC2)nc2ccccc12 (relative stereo) [Example 1112, N-(cis-4-{[4-(dimethylamino)quinazolin-2-yl]amino}cyclohexyl)-2-hydroxy-2-[3-(trifluoromethyl)phenyl]acetamide]
24 | < 50 | COc1cccc(C(O)C(=O)N[C@H]2CC[C@@H](Nc3nc(N(C)C)c4ccccc4n3)CC2)c1 (relative stereo) [Example 1113, N-(cis-4-{[4-(dimethylamino)quinazolin-2-yl]amino}cyclohexyl)-2-hydroxy-2-(3-methoxyphenyl)acetamide]
25 | < 50 | CC(NC(=O)[C@H]1CC[C@@H](Nc2nc(N(C)C)c3ccccc3n2)CC1)c1ccc(F)cc1 (relative stereo) [Example 1138, cis-4-{[4-(dimethylamino)quinazolin-2-yl]amino}-N-[1-(4-fluorophenyl)ethyl]cyclohexanecarboxamide]
26 | < 50 | CC(NC(=O)[C@H]1CC[C@@H](Nc2nc(N(C)C)c3ccccc3n2)CC1)c1ccc(Br)cc1 (relative stereo) [Example 1140, cis-N-[1-(4-bromophenyl)ethyl]-4-{[4-(dimethylamino)quinazolin-2-yl]amino}cyclohexanecarboxamide]
